Some test systems named below: OVCAR-4 ovarian; K-562 leukemia; HCT-15 colon; PC-3 prostate; UACC-257 melanoma; SK-MEL-2 melanoma.
Common to all, as to test: NCI-60 cell line screen, 48 h

Each structure is given as a SMILES string.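 Method: 48-hour compound exposure of cells in 96-well plates, five concentrations, linear interpolation of endpoints. Definition used: TGI = concentration required for complete inhibition of growth.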

For `CO[C@H]1C[C@H](O[C@H]2CC[C@]3(C=O)[C@H]4CC[C@]5(C)[C@@H](C6=CC(=O)OC6)CC[C@]5(O)[C@@H]4CC[C@]3(O)C2)O[C@H](C)[C@H]1O[C@@H]1O[C@H](CO[C@@H]2O[C@H](CO)[C@@H](O)[C@H](O)[C@H]2O)[C@@H](O)[C@H](O)[C@H]1O`, the TGI with OVCAR-4 ovarian was 0.144 µM; in the test on K-562 leukemia, over 100 µM; in the test with HCT-15 colon it was 0.144 µM; with PC-3 prostate, 0.33 µM; in the test with UACC-257 melanoma, 1.27 µM; in the test on SK-MEL-2 melanoma, 0.907 µM.

Take `COc1cc(C2c3cc4c(cc3OC(O)C2C)OCO4)cc(OC)c1O` (stereo not given): the TGI with OVCAR-4 ovarian is over 100 µM; in the test with K-562 leukemia it was over 100 µM; in the test with HCT-15 colon, over 57.4 µM; in the test on PC-3 prostate it was over 100 µM; in the test with UACC-257 melanoma, over 100 µM; in the test on SK-MEL-2 melanoma, over 100 µM.

As for `O=C(Nc1ccc(F)cc1)c1cc2ccc(O)cc2oc1=Nc1cccc(F)c1`, the TGI in the test on OVCAR-4 ovarian is over 100 µM; in the test with K-562 leukemia, over 100 µM; with HCT-15 colon, 92.2 µM; in the test with PC-3 prostate, over 100 µM; in the test with UACC-257 melanoma it was over 100 µM; with SK-MEL-2 melanoma it was over 100 µM.

Regarding `CC[C@]12C=CCN3CCC4(c5cc(N=Nc6ccc([N+](=O)[O-])cc6)c(OC)cc5N(C)[C@H]4[C@@](O)(C(=O)OC)[C@@H]1OC(C)=O)[C@@H]32` (stereo not given in full), the TGI in the test on OVCAR-4 ovarian was over 100 µM; with K-562 leukemia it was 34.6 µM; in the test on HCT-15 colon, 57.8 µM; in the test on PC-3 prostate, 46.1 µM; with UACC-257 melanoma, 56.5 µM; in the test on SK-MEL-2 melanoma, 43 µM.

In the case of `CCC(CCCCC1CC[C@H]2CC(=O)C[C@@H]12)OC` (stereo not given in full), the TGI was over 100 µM in the test with OVCAR-4 ovarian; 66.1 µM with K-562 leukemia; over 100 µM with HCT-15 colon; over 100 µM in the test with PC-3 prostate; over 100 µM in the test with UACC-257 melanoma; over 100 µM in the test with SK-MEL-2 melanoma.

Regarding `Clc1ccc(CSCc2ccc(Cl)cc2Cl)c(Cl)c1`, the TGI in the test with OVCAR-4 ovarian was over 100 µM; in the test with K-562 leukemia, over 100 µM; in the test on HCT-15 colon, over 100 µM; in the test on PC-3 prostate it was over 100 µM; in the test with UACC-257 melanoma it was 64.7 µM; in the test with SK-MEL-2 melanoma, 51.3 µM.

Turning to `CC[C@@H]1C[C@@H](O)[C@@H]2[C@H](O)[C@H](O)CN2C1`, the TGI in the test with OVCAR-4 ovarian, with K-562 leukemia, in the test with HCT-15 colon, in the test with PC-3 prostate, in the test with UACC-257 melanoma and with SK-MEL-2 melanoma was over 100 µM each time.

As for `Cc1c(C)c(C)c(CSC(=N)N)c(C)c1C`, the TGI in the test on OVCAR-4 ovarian worked out at 33.2 µM; in the test with K-562 leukemia, 30.2 µM; with HCT-15 colon it was 31.3 µM; in the test with PC-3 prostate, 24.6 µM; in the test on UACC-257 melanoma, 27.3 µM; with SK-MEL-2 melanoma it was 27.8 µM.

On to `C(=N/Nc1ccccn1)/c1cccnc1`, for which the TGI with OVCAR-4 ovarian, with K-562 leukemia, in the test on HCT-15 colon, with PC-3 prostate, with UACC-257 melanoma and in the test on SK-MEL-2 melanoma was over 100 µM in each case.

For `CCCCN1C(=O)C[C@H]2[C@@H]3CCc4cc(OCCN5CCCC5)ccc4[C@H]3CC[C@]2(C)C1=O`, the TGI with OVCAR-4 ovarian is 27.6 µM; in the test with K-562 leukemia it was 7.23 µM; with HCT-15 colon, 22.4 µM; in the test on PC-3 prostate, 20.4 µM; with UACC-257 melanoma, 13.4 µM; in the test on SK-MEL-2 melanoma it was 19.2 µM.

As to `Cc1ccc(OCCn2cc(Nc3ccccc3)c(=O)[nH]c2=O)cc1`, the TGI in the test with OVCAR-4 ovarian, in the test with K-562 leukemia, with HCT-15 colon, in the test with PC-3 prostate, with UACC-257 melanoma and with SK-MEL-2 melanoma was over 100 µM throughout.

For `Nc1nc(Cl)cc(NCC2(CO)CCC(OCc3ccccc3)C2)n1` (stereo not given), the TGI is 65.2 µM with OVCAR-4 ovarian; over 100 µM in the test with K-562 leukemia; over 100 µM with HCT-15 colon; 33 µM in the test on PC-3 prostate; 45.1 µM with UACC-257 melanoma; 77.3 µM in the test with SK-MEL-2 melanoma.

Regarding `C=C1C(=O)O[C@H]2[C@H]3O[C@@H](C[C@@H]12)[C@](C)(O)CCCC(C)=CCC[C@H]3C`, the TGI with OVCAR-4 ovarian was 39 µM; in the test on K-562 leukemia, 64.7 µM; in the test with HCT-15 colon, 84.9 µM; in the test with PC-3 prostate it was 25.7 µM; with UACC-257 melanoma it was 22.7 µM; in the test on SK-MEL-2 melanoma it was 28.7 µM.

Take `c1ccc(-c2cc(-c3cc(-c4ccccc4)no3)on2)cc1`: the TGI in the test with OVCAR-4 ovarian is 85.9 µM; in the test on K-562 leukemia, 49 µM; in the test on HCT-15 colon, over 100 µM; in the test with PC-3 prostate, over 100 µM; in the test with UACC-257 melanoma, over 100 µM; in the test with SK-MEL-2 melanoma, over 100 µM.

As to `O=C(NC1CCN(Cc2ccccc2)CC1)c1ccccc1I`, the TGI was over 100 µM in the test with OVCAR-4 ovarian; over 100 µM in the test with K-562 leukemia; 36.7 µM with HCT-15 colon; 98.8 µM in the test on PC-3 prostate; 38 µM with UACC-257 melanoma; 48.7 µM in the test with SK-MEL-2 melanoma.

In the case of `N#C/C(N)=C(\C#N)N=CNc1ccccc1N`, the TGI with OVCAR-4 ovarian, in the test with K-562 leukemia, in the test on HCT-15 colon, with PC-3 prostate, in the test with UACC-257 melanoma and in the test with SK-MEL-2 melanoma was over 100 µM throughout.

Consider `CCC(C)(C)c1ccc(Oc2cccc(C(=O)O)c2)cc1`, for which the TGI in the test with OVCAR-4 ovarian, in the test with K-562 leukemia, in the test on HCT-15 colon, with PC-3 prostate, with UACC-257 melanoma and in the test with SK-MEL-2 melanoma was over 100 µM in each case.

With `O=C1C(c2c(O)[nH]c3ccc(S(=O)(=O)N(CCO)CCO)cc23)=Nc2ccccc21`, the TGI in the test with OVCAR-4 ovarian, in the test on K-562 leukemia, with HCT-15 colon, in the test with PC-3 prostate, with UACC-257 melanoma and in the test on SK-MEL-2 melanoma was over 100 µM throughout.

As to `CC1(c2nc3cc(Cl)c(Cl)cc3[nH]2)CCC(C(=O)O)C(C)(C)O1` (stereo not given), the TGI in the test with OVCAR-4 ovarian, in the test with K-562 leukemia, with HCT-15 colon, in the test with PC-3 prostate, with UACC-257 melanoma and in the test on SK-MEL-2 melanoma was over 100 µM throughout.

Consider `O=C(NO)c1ccc(OCc2ccccc2)cc1`, for which the TGI in the test on OVCAR-4 ovarian is 75 µM; in the test on K-562 leukemia it was over 100 µM; in the test on HCT-15 colon, 45 µM; in the test on PC-3 prostate it was over 100 µM; in the test on UACC-257 melanoma, over 100 µM; in the test on SK-MEL-2 melanoma, over 100 µM.

(Values after PubChem BioAssay (NCI).)
